According to US11738072B2, “Tumor vaccine and uses thereof” (WestVac Biopharma Co., Ltd., priority 2017, dated 2023):

Experiments:
A549 cells = experiment: A549 cell death test by PI-AnnexinV (fluorescence microscope); assay type: cell-based; conditions: A549, 24 h; complex mass ratio 1:6
Procedure: A549 cells in the logarithmic growth phase were prepared into single cell suspension, inoculated into a 6-well plate as per approximately 1×10^5 cells per well. Then, 2 ml of medium was added to each well and cultured in a 5% CO2 incubator at 37° C. for 24-36 h.
a. 5 mg/ml of pMVA-1 plasmid vector solution was added to 100 μl of 1640 serum-free medium for preparing a pMVA-1 plasmid vector control group;
b. 1 mg/ml of DOTAP cationic lipid was dissolved in 100 μl of 1640 serum-free medium for preparing a DOTAP cationic lipid control group;
c. the pMVA-1/DOTAP complex with a mass ratio of 1:6 prepared in Example 5 was dissolved in 100 μl of 1640 serum-free medium for preparing a pMVA-1/DOTAP complex experimental group.
Some of the medium was pipetted from the 6-well plate in Step (1) until the medium in each well reached 900 μl. The pMVA-1/DOTAP complex (pMVA-DOTAP) (prepared in Step (2)) of the experimental group as well as the pMVA-1 plasmid vector (PMVA) and DOTAP cationic lipid (DOTAP) of the control group was added to A549 cells cultured in Step (1) respectively to make the total volume of 1 ml. At the same time, a blank control group containing only medium was made, and incubated in a 5% of CO2 incubator at 37° C. for 24 h. […]
The cells stained with PI and Annexin V in Step (4) were washed once with PBS and observed under a fluorescence microscope. […]

CT26 cells = experiment: CT26 cell death test by PI-AnnexinV (fluorescence microscope); assay type: cell-based, mouse; conditions: CT26, 24 h
Excerpt: (1) Experimental method: same as 1.

CCCCCCCC/C=C\CCCCCCCC(=O)OCC(C[N+](C)(C)C)OC(=O)CCCCCCC/C=C\CCCCCCCC (centres unmarked) [DOTAP, 1,2-dioleoyl-3-trimethylammonium-propane]
PI-positive and AnnexinV-positive cells (A549 cells): did not indicate obvious PI uptake and AnnexinV-labeled positive cells | PI-positive and AnnexinV-positive cells (CT26 cells): did not indicate obvious PI uptake and obvious AnnexinV-labeled positive cells
